# Patent publication US9913827B2, “Bendamustine derivatives and methods of using same” (IGNYTA, INC., priority 2012, dated 2018)
# Like-named read-outs stand apart in the source and are kept apart here. Marks after values point to notes of the source that are not given here.
# Experiments:
# [1] = Rat plasma pharmacokinetics at 3 mg-eq/kg i.v.; conditions: solution formulation 3 mg-eq/kg i.v.
# MDA-MB-231 xenografts = assay: Nude mouse MDA-MB-231 tumor efficacy study; assay type: in vivo, athymic nude mice
# Method: Charles River Labs athymic nude mice were subcutaneous injected with 5×10^6 human tumor cells in matrigel. The tumor volume was monitored until an average tumor size of ˜150 mm^3 was obtained in the mouse population The mice were then randomized in to one of the nine treatment groups (summarized in table below) with a population of 10 mice per group (n=10). Each of the formulations was dosed at 100 μL fixed volume via tail vein injection on day 1 and day 2 of the study. Mice were weighed and the tumor volume measured every 3-4 days for 3 weeks of the study duration.
# [2] = Tumor efficacy PK group, MB-231 tumor-bearing mice: tumor and plasma levels; conditions: for Ester level in Plasma at 1 hour / Ester level in Tumor at 1 hour: 80 mg/kg i.v.
# Method: (§1) A portion of the tumor bearing mice were dosed as a satellite PK group. Each group was dosed as described for the tumor efficacy group, however the PK group was euthanized and tissue samples collected at 1, 3 and 6 hours post dosing on day 2. The tissues collected included blood, lung, liver and tumor. Samples were analyzed for bendamustine HCl and the corresponding ester analogue as described in the LC-MS protocol section.
# (§2) Plasma and other tissues were prepared for high performance liquid chromatography (HPLC)/mass spectrometric analysis according to a standard protocol following protein precipitation with acetonitrile containing an internal standard. The samples were then analyzed for both bendamustine HCl and bendamustine esters of the invention and alprenolol (internal standard) via HPLC coupled with tandem mass spectrometry. Tissue samples were homogenized in sodium phosphate buffer and the value obtained from the assay was multiplied by 3 to correct for dilution during processing.
# [3] = test system: H460 tumor cells (large cell lung cancer); assay: Nude mouse H460 tumor efficacy study; assay type: in vivo, nu/nu mouse
# Method: 2×10^6 cells/100 ul in the mix of medium and Matrigel (1:1 ratio) solution was injected into right back flank of each nu/nu mouse. The implanted mice were monitored and measured with electric calipers. The study started when the tumors reached ˜150 mm^3 in size. The mice were measured and randomized into 9 groups with 10 mice in each group per the below table: […]
# [4] = Tumor efficacy PK group, H-460 tumor-bearing mice: tumor and plasma levels; conditions: for Ester level in Plasma at 1 hour / Ester level in Tumor at 1 hour: 80 mg/kg i.v.
# Method: The formulations were administrated as 100 μL dose volume through tail vein injection within 30 minutes after compounds were formulated. All the mice were weighed and tumors measured twice weekly. At the last day of the study, plasma, tumor, lung, liver, spleen, left kidney, brain and legs were collected and quickly frozen for further analysis two hours post-dosing.
# as §1, §2
# [5] = test system: RPMI 8226 (Human Plasmacytoma, Myeloma B Cells); assay type: in vivo, CB.17 SCID female mice; conditions: day 46
# Method: RPMI 8226 (Human Plasmacytoma, Myeloma B Cells) ATCC #CCL-155;
# 80 CB.17 SCID female mice, 4-6 weeks old, 16-20 grams, obtained from Harlan animal breeding center
# Cells (originated from ATCC) were cultured on RPMI medium. Cell suspension was centrifuged and resuspended in 50% Matrigel/HBSS to a final concentration of 7×10^7 cells/ml. The suspension was implanted s.c. in the right flank of the anesthetized mouse at a volume of 100 μl.
# Seven ml saline were added to the original vial containing 3.5 mg powder resulting in 0.5 mg/ml. Three ml of this solution were added to 27 ml saline to receive 0.05 mg/ml concentration.
# bendamustine preparation: 13.5 mg was dissolved in 3.6 ml of 1:1 mixture of 0.9% saline/5% mannitol just before the treatment. 1.05 ml of this solution was added to 0.95 ml diluent for 2 mg/ml solution.
# 1.05 ml of this solution was added to 0.95 ml diluent for 2 mg/ml solution.
# On day 21, mice were sorted by the optimal average tumor volume (˜150 mm^3) and were allocated into eight groups of 9 mice each.
# [formula] The analysis of weight gain and tumor volume progression was made using one-way ANOVA followed by Tukey post-hoc comparisons. Results
# MB-231 (HBC) = assay: MTS cell assay (cell proliferation), MB-231; assay type: cell-based; conditions: Homo sapiens, 72 hours
# Method: Charles River Labs athymic nude mice bearing MDA-MB-231 breast carcinoma cell line subcutaneous xenografts (5×10^6 cells in matrigel) were sacrificed to make a tumor isolate. Using sterile instruments and working aseptically, the tumors were removed from the euthanized animal. The tumor was placed in a 50 mL sterile conical tube and 5 mL of trypsin was added. The tumor was cut into small pieces and incubated at 37° C. for 30 minutes. After incubation, a cell strainer was placed on a second, sterile, 50 mL conical tube and the contents of the first tube were placed in the cell strainer. The tissue was forced through the filter using the flat end of a syringe plunger. The cell strainer was washed with 5 mLs of media containing FBS. The cells were spun down and the supernatant was discarded. The cells were resuspended in 20 mLs of complete media containing P/S and placed in a 75 cm flask.
# (§3) Human carcinoma cells (2,000 cells/well) were incubated with the desired concentration of the test molecule (0-200 μM) for 72 hours. The cells were then incubated with MTS solution (Promega) for 1-2 hours, and the compounds effects on cell proliferation was determined by measuring the absorbance at 490 nm. Cell growth was expressed as a percent of the appropriate control (placebo). […] All data reported was the mean±SE of three independent experiments.
# H-460 (NSCLC) = assay: MTS cell assay (cell proliferation), H-460; assay type: cell-based; conditions: Homo sapiens, NCI-H460, 72 hours
# Method: as §3
# [6] = Solution, 37.5 mg/kg i.v. day 1 and 2
# [7] = HSA nanoparticle, 80 mg/kg i.v. day 1 and 2
# [8] = Solution, 80 mg/kg i.v. day 1 and 2
# [9] = HSA nanoparticle, 80 mg/kg i.v.
smiles,measurement,setting,value
"CCCCCC(CCCC)OC(=O)CCCc1nc2cc(N(CCCl)CCCl)ccc2n1C (stereo not shown) [5-decanyl ester, 4-{5-[Bis-(chloroethyl)-amino]-1-methyl-1H-benzimidazol-2-yl}butyric acid 5-decyl ester]",Plasma levels of the dosed Ester,[1],All < MQL
"Cn1c(CCCC(=O)O)nc2cc(N(CCCl)CCCl)ccc21 [Bendamustine, 4-[5-[bis(2-chloroethyl)amino]-1-methylbenzimidazol-2-yl]butanoic acid]",% Morbidity,MDA-MB-231 xenografts; [6],10%
same,% Mortality,MDA-MB-231 xenografts; [6],0%
same,% Tumor Inh.,MDA-MB-231 xenografts; [6],77%
same,BM1 level in Plasma at 1 hour,"[2]; Solution, 37.5 mg/kg i.v.",906 ng/mL
same,BM1 level in Tumor at 1 hour,"[2]; Solution, 37.5 mg/kg i.v.",558 ng/mL
same,% Morbidity,"[3]; Solution, 37.5 mg/kg i.v.",0/0%
same,% Mortality,"[3]; Solution, 37.5 mg/kg i.v.",0/0%
same,BM1 level in Plasma at 1 hour,"[4]; Solution, 37.5 mg/kg i.v.",1550 ng/mL
same,BM1 level in Tumor at 1 hour,"[4]; Solution, 37.5 mg/kg i.v.",1472 ng/mL
same,% TGI,[5]; 20 mg/kg iv on days 1 and 2,66*** %
same,No. of CR,[5]; 20 mg/kg iv on days 1 and 2,0
same,No. of PR,[5]; 20 mg/kg iv on days 1 and 2,0
same,"Δ mean tumor volume, (mean ± se)",[5]; 20 mg/kg iv on days 1 and 2,205 ± 44
same,No. of CR,[5]; 37.5 mg/kg iv on days 1 and 2,0
same,No. of PR,[5]; 37.5 mg/kg iv on days 1 and 2,0
same,"Δ mean tumor volume, (mean ± se)",[5]; 37.5 mg/kg iv on days 1 and 2,113 ± 23
same,% TGI,"[5]; 37.5 mg/kg iv on days 1 and 2, 37.5 mg/kg",81%
"Cn1c(CCCC(=O)OC2CCCCC2)nc2cc(N(CCCl)CCCl)ccc21 [Cy-hexyl bendamustine ester, 4-{5-[Bis-(chloroethyl)-amino]-1-methyl-1H-benzimidazol-2-yl}butyric acid cyclohexyl ester]",Plasma levels of the dosed Ester,[1],All < MQL
"CCCCCCCCOC(=O)CCCc1nc2cc(N(CCCl)CCCl)ccc2n1C [bendamustine C8 ester, 4-{5-[Bis-(chloroethyl)-amino]-1-methyl-1H-benzimidazol-2-yl}butyric aid octyl ester]",IC50,MB-231 (HBC),53.1 µM
same,IC50,H-460 (NSCLC),49 µM
"CCCCCCCCCCCCCCOC(=O)CCCc1nc2cc(N(CCCl)CCCl)ccc2n1C [bendamustine C14 ester, 4-{5-[Bis-(chloroethyl)-amino]-1-methyl-1H-benzimidazol-2-yl}butyric acid tetradecyl ester]",% Morbidity,MDA-MB-231 xenografts; [7],60%
same,% Mortality,MDA-MB-231 xenografts; [7],0%
same,% Morbidity,MDA-MB-231 xenografts; [8],40%
same,% Mortality,MDA-MB-231 xenografts; [8],0%
same,% Tumor Inh.,MDA-MB-231 xenografts; [8],90%
same,Ester level in Plasma at 1 hour,[2]; HSA nanoparticle,5727 ng/mL
same,Ester level in Tumor at 1 hour,[2]; HSA nanoparticle,10430 ng/mL
same,Ester level in Plasma at 1 hour,[2]; Solution,14 ng/mL
same,Ester level in Tumor at 1 hour,[2]; Solution,396 ng/mL
same,% Morbidity,[3]; [9],10%
same,% Mortality,[3]; [9],0%
same,% Tumor Inh.,[3]; [9],40%
same,% Morbidity,"[3]; Solution, 80 mg/kg i.v.",100%
same,% Mortality,"[3]; Solution, 80 mg/kg i.v.",40%
same,% Tumor Inh.,"[3]; Solution, 80 mg/kg i.v.",81%
same,Ester level in Plasma at 1 hour,[4]; HSA nanoparticle,3648 ng/mL
same,Ester level in Tumor at 1 hour,[4]; HSA nanoparticle,4570 ng/mL
same,Ester level in Plasma at 1 hour,[4]; Solution,32233 ng/mL
same,Ester level in Tumor at 1 hour,[4]; Solution,8570 ng/mL
